According to paper PMC8862607 (Molecular microbiology, 2021):
pKd: −log10 of the molar value. Like-named read-outs stand apart in the source and are kept apart here.

Key:
AntR [1] = biological target: T1, AntR (Comamonas testosteroni, UniProt A0A096F4H2); type: cell-based, Comamonas testosterone JL40
AntR [2] = biological target: T1, AntR; type: binding, Comamonas testosterone JL40; settings: read-out: apparent Kd (ITC)
AntR C103S = assay: Two-plasmid gfp biosensor with AntR C103S mutant in E. coli AW3110; type: cell-based, Comamonas testosterone JL40; settings: 0.2% arabinose, E. coli AW3110(DE3), Figure 3c
[3] = test system: AntR binding to the ant operator/promoter DNA; type: biochemical, Comamonas testosterone JL40
AntR C113S = assay: Two-plasmid gfp biosensor with AntR C113S mutant in E. coli AW3110; type: cell-based, Comamonas testosterone JL40; settings: 0.2% arabinose, E. coli AW3110(DE3), Figure 3d
AntR Y96W derivative = AntR Y96W derivative (Comamonas testosteroni, UniProt A0A096F4H2, Y97W); type: binding, Comamonas testosterone JL40; settings: read-out: apparent Kd (fluorescence quenching); pH 7.8
Chain of AntR Y96W derivative (A0A096F4H2 1-124 Y97W): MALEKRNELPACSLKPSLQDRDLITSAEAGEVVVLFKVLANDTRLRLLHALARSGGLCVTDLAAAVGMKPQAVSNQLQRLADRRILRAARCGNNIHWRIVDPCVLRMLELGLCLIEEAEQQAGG

T1 sequence (A0A096F4H2 1-124): as the sequence (A0A096F4H2 1-124 Y97W) above, with W97Y counted along it

For antimonite [Sb(III)], the “response of AntR repressor to metalloid (introductory summary)” value (shortened to “response of AntR repressor to metalloid”) (AntR [1]) was “responds”, the “induction of gfp expression in biosensor” value (AntR [1]; 5 µM metalloid, 0.2% arabinose, E. coli AW3110Δars, wild-type AntR) was “induced gfp expression” and the pKd (AntR [2]) was 4.24. The “response of C103S mutant biosensor compared with the wild type” value (AntR C103S) was “reduced responses”, the “effect of metal(loid) on AntR mobility shift of ant promoter probe (EMSA)” value [3] was “mobility shift decreased” and the “response of C113S mutant biosensor compared with the wild type” value (AntR C113S) was “reduced responses”.
In the case of `C[As](O)O` [MAs(III), methylarsenite], the “induction of gfp expression in biosensor” value (AntR [1]) was “induced gfp expression”, the “response of AntR repressor to metalloid” value (AntR [1]) was “responds” and the “response of C103S mutant biosensor compared with the wild type” value (AntR C103S) was “reduced responses”. For the same compound, the “response of C113S mutant biosensor compared with the wild type” value (AntR C113S) was “reduced responses”.
With `O[As](O)O` [As(III), arsenite] the “induction of gfp expression in biosensor” value (AntR [1]) was “little gfp expression”, the “response of AntR repressor to metalloid” value (AntR [1]) was “only weakly” and the pKd (AntR [2]) was 3.36. It also gave a pKd (AntR Y96W derivative) of ~3.80.
